Consider 23 molecules from patent US12404241B2 (Celgene Corporation, priority 2018, dated 2025).

Where a name gives a salt, the structure may show the parent alone. A value given as a limit tells only on which side of the number the result lay.

By DC50 is commonly meant the concentration giving 50% degradation.

For the experiment, the target named is T1, AR (Homo sapiens, UniProt P10275).
T1 construct: endogenous in cells; host or cells: VCaP cells
T1 sequence (P10275 1-920): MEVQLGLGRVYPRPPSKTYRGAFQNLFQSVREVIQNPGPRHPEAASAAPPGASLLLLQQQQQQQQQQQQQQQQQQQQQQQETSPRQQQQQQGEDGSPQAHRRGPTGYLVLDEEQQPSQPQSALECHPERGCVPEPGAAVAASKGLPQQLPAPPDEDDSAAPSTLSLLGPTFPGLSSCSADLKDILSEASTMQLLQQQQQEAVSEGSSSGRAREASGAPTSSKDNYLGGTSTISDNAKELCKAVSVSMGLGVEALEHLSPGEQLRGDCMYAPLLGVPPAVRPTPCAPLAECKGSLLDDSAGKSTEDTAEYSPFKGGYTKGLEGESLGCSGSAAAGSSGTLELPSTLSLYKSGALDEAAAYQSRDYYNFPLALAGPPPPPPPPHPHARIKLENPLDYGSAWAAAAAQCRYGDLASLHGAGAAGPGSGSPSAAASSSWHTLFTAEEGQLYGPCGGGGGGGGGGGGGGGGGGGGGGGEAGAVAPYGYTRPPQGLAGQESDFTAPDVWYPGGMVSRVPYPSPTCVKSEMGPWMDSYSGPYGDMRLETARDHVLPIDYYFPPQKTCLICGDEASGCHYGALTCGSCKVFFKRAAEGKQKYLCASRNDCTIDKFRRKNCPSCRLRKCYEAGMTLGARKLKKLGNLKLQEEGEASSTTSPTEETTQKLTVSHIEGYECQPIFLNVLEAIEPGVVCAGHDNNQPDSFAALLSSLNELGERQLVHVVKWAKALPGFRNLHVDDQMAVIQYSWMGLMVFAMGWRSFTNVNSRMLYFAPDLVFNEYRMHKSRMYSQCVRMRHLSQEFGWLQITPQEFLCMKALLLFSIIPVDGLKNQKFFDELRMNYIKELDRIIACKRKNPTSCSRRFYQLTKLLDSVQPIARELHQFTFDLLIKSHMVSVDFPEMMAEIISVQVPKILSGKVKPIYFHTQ
The experiment in a line: VCAP AR Degradation Assay. In kind it is cell-based. The settings on record: for Y (AR degradation efficiency, % of DMSO control): class symbols *; for DC50: class symbols A-C, read-out: DC50. On the procedure: VCAP AR Degradation Assay. Test compounds were pre-dispensed into a Corning CellBind 96-well clear bottom plate (Cat #3300) using an acoustic dispenser to make a 10-point concentration series at 1:3 dilution for each compound. The final top concentration of each compound was 5 μM. DMSO at a final concentration of 0.1% was used as a control. VCaP cells cultured in DMEM with 8% fetal bovine serum (FBS) were seeded at 50K cells per well in a 200 μL volume into the compound plate and incubated at 37° C. in a CO2 incubator for 24 h. The medium was carefully removed from the cells and the plate was placed on ice. One hundred μL of ice-cold 1x cell lysis buffer from Cell Signaling Technologies (Cat #9803) was added to each well of the cells and the plate was incubated at 4° C. on a shaker for 1 h. Fifteen μL of cell lysate was used for AR ELISA detection using a PathScan Total Sandwich AR ELISA kit (Cell Signaling Technology, Cat #12580). AR levels in compound-treated wells were normalized to that of DMSO control and expressed as percent of control (PoC) (y). A Four Parameter Logistic Model (Sigmoidal Dose-Response Model) was used to determine the compound's DC50, and EC50, using the following equation:
[formula] • A=YMin (lowest AR level normalized to DMSO control in response to compound treatment, as determined by curve fit) • B=YMax (maximum AR level as determined by curve fit) • C=EC50 • D=Hill Slope • x=compound concentration • EC50=the concentration of compound when y=(YMax−YMin)/2 • DC50=the concentration of the compound when y=50% of DMSO control (50% AR degradation) • y=AR protein level normalized to DMSO control
The lowest measured AR level normalized to DMSO control in response to compound treatment, termed Y value, was used to characterize the compound-mediated AR degradation efficiency.

As for `CC1(C)C(=O)N(c2ccc(C#N)c(C(F)(F)F)c2)C(=S)N1c1ccc(OCCN2CCN(CC(=O)Nc3cccc(NC4CCC(=O)NC4=O)c3)CC2)c(C(F)(F)F)c1` (stereo not shown) [Example 12, hydrochloride], the “Y (AR degradation efficiency, % of DMSO control)” value is “*** (35%<Y<50%)” and the DC50 lay within 100 to 500 nM.

For `Cc1cc(OCCN2CCN(CC(=O)Nc3cccc(NC4CCC(=O)NC4=O)c3)CC2)c(F)cc1N1C(=S)N(c2ccc(C#N)c(C(F)(F)F)c2)C(=O)C1(C)C` (stereo not shown) [Example 13, hydrochloride], the “Y (AR degradation efficiency, % of DMSO control)” value is listed as “*** (35%<Y<50%)” and the DC50 was less than 100 nM.

On to `CC1(C)C(=O)N(c2cnc(C#N)c(C(F)(F)F)c2)C(=S)N1c1ccc(OCCN2CCN(CC(=O)Nc3cc(Cl)cc(NC4CCC(=O)NC4=O)c3)CC2)c(Cl)c1` (stereo not shown) [Example 14, hydrochloride], for which the “Y (AR degradation efficiency, % of DMSO control)” value is reported as “* (0<Y<=25%)” and the 50% degradation concentration (DC50) is less than 100 nM.

Turning to `Cc1cc(NC(=O)CN2CCN(CCOc3ccc(N4C(=S)N(c5ccc(C#N)c(C(F)(F)F)c5)C(=O)C4(C)C)cc3F)CC2)cc(NC2CCC(=O)NC2=O)c1` (stereo not shown) [Example 15, hydrochloride], the “Y (AR degradation efficiency, % of DMSO control)” value was “** (25%<Y<=35%)” and the half-maximal degradation concentration (DC50) is less than 100 nM.

As to `CC(C)c1cc(N2C(=S)N(c3ccc(C#N)c(C(F)(F)F)c3)C(=O)C2(C)C)ccc1OCCN1CCN(CC(=O)Nc2cccc(NC3CCC(=O)NC3=O)c2)CC1` (stereo not shown) [Example 17, hydrochloride], the “Y (AR degradation efficiency, % of DMSO control)” value is given as “* (0<Y<=25%)” and the DC50 is less than 100 nM.

Consider `CC(C)Cc1cc(N2C(=S)N(c3ccc(C#N)c(C(F)(F)F)c3)C(=O)C2(C)C)ccc1OCCN1CCN(CC(=O)Nc2cccc(NC3CCC(=O)NC3=O)c2)CC1` (stereo not shown) [Example 18], for which the “Y (AR degradation efficiency, % of DMSO control)” value is “* (0<Y<=25%)” and the half-maximal degradation concentration (DC50) was less than 100 nM.

For the molecule `CC1(C)C(=O)N(c2ccc(C#N)c(C(F)(F)F)c2)C(=S)N1c1ccc(OCCN2CCN(CC(=O)Nc3cc(F)cc(NC4CCC(=O)NC4=O)c3)CC2)c(F)c1` (stereo not shown) [Example 19, formate], the “Y (AR degradation efficiency, % of DMSO control)” value is reported as “* (0<Y<=25%)” and the DC50 was less than 100 nM.

On to `CC1(C)C(=O)N(c2ccc(C#N)c(C(F)(F)F)c2)C(=S)N1c1ccc(OCCN2CCN(CC(=O)Nc3cc(NC4CCC(=O)NC4=O)ccc3Cl)CC2)c(Cl)c1` (stereo not shown) [Example 20, hydrochloride], for which the “Y (AR degradation efficiency, % of DMSO control)” value was “* (0<Y<=25%)” and the 50% degradation concentration (DC50) is less than 100 nM.

For the molecule `C[C@@H](C(=O)Nc1cccc(NC2CCC(=O)NC2=O)c1)N1CCN(CCOc2ccc(N3C(=S)N(c4ccc(C#N)c(C(F)(F)F)c4)C(=O)C3(C)C)cc2Cl)CC1` (stereo partly shown) [Example 21, hydrochloride], the “Y (AR degradation efficiency, % of DMSO control)” value is listed as “* (0<Y<=25%)” and the 50% degradation concentration (DC50) was less than 100 nM.

For `CCc1cc(N2C(=S)N(c3cnc(C#N)c(C(F)(F)F)c3)C(=O)C2(C)C)ccc1OCCN1CCN(CC(=O)Nc2cccc(NC3CCC(=O)NC3=O)c2)CC1` (stereo not shown) [Example 22, hydrochloride], the “Y (AR degradation efficiency, % of DMSO control)” value was “* (0<Y<=25%)” and the DC50 was less than 100 nM.

As for `CC1(C)C(=O)N(c2cnc(C#N)c(C(F)(F)F)c2)C(=S)N1c1ccc(OCCN2CCN(CC(=O)Nc3cc(Cl)cc(NC4CCC(=O)NC4=O)c3)CC2)cc1` (stereo not shown) [Example 24, 2-(4-(2-(4-(3-(6-cyano-5-(trifluoromethyl)pyridin-3-yl)-5,5-dimethyl-4-oxo-2-thioxoimidazolidin-1-yl)-2-ethylphenoxy)ethyl)-2,2-dimethylpiperazin-1-yl)-N-(3-((2,6-dioxopiperidin-3-yl)amino)-5-fluorophenyl)acetamide hydrochoride], the “Y (AR degradation efficiency, % of DMSO control)” value was “* (0<Y<=25%)” and the 50% degradation concentration (DC50) is less than 100 nM.

Take `C[C@H](C(=O)Nc1cccc(NC2CCC(=O)NC2=O)c1)N1CCN(CCOc2ccc(N3C(=S)N(c4ccc(C#N)c(C(F)(F)F)c4)C(=O)C3(C)C)cc2Cl)CC1` (stereo partly shown) [Example 25, hydrochloride]: the “Y (AR degradation efficiency, % of DMSO control)” value is listed as “*** (35%<Y<50%)” and the DC50 was less than 100 nM.

Turning to `CCc1cc(N2C(=S)N(c3ccc(C#N)c(C(F)(F)F)c3)C(=O)C2(C)C)ccc1OCCN1CCN(CC(=O)Nc2cccc(N[C@H]3CCC(=O)NC3=O)c2)CC1` [Example 27, hydrochloride], the “Y (AR degradation efficiency, % of DMSO control)” value is given as “* (0<Y<=25%)” and the DC50 is less than 100 nM.

As for `CCc1cc(N2C(=S)N(c3ccc(C#N)c(C(F)(F)F)c3)C(=O)C2(C)C)ccc1OCCN1CCN(CC(=O)Nc2cccc(N[C@@H]3CCC(=O)NC3=O)c2)CC1` [Example 28, hydrochloride], the “Y (AR degradation efficiency, % of DMSO control)” value is on record as “* (0<Y<=25%)” and the half-maximal degradation concentration (DC50) is less than 100 nM.

In the case of `CCC(C)c1cc(N2C(=S)N(c3ccc(C#N)c(C(F)(F)F)c3)C(=O)C2(C)C)ccc1OCCN1CCN(CC(=O)Nc2cccc(NC3CCC(=O)NC3=O)c2)CC1` (stereo not shown) [Example 29, hydrochloride], the “Y (AR degradation efficiency, % of DMSO control)” value is “** (25%<Y<=35%)” and the DC50 lay in the range of 500 to 1000 nM.

For the molecule `CC1(C)C(=O)N(c2ccc(C#N)c(C(F)(F)F)c2)C(=S)N1c1ccc(OCCN2CCN(CC(=O)Nc3cc(Cl)cc(NC4CCC(=O)NC4=O)c3)CC2)c(C2CC2)c1` (stereo not shown) [Example 30, hydrochloride], the “Y (AR degradation efficiency, % of DMSO control)” value is listed as “* (0<Y<=25%)” and the DC50 is less than 100 nM.

On to `CC1(C)C(=O)N(c2ccc(C#N)c(C(F)(F)F)c2)C(=S)N1c1ccc(OCCN2CCN(CC(=O)Nc3cccc(NC4CCC(=O)NC4=O)c3)CC2)c(C2CCC2)c1` (stereo not shown) [Example 31, trifluoroacetate], for which the “Y (AR degradation efficiency, % of DMSO control)” value is reported as “* (0<Y<=25%)” and the DC50 is less than 100 nM.

Consider `CCCc1cc(N2C(=S)N(c3ccc(C#N)c(C(F)(F)F)c3)C(=O)C2(C)C)ccc1OCCN1CCN(CC(=O)Nc2cccc(NC3CCC(=O)NC3=O)c2)CC1` (stereo not shown) [Example 34, hydrochloride], for which the “Y (AR degradation efficiency, % of DMSO control)” value is “* (0<Y<=25%)” and the DC50 is less than 100 nM.

`CCc1cc(N2C(=S)N(c3ccc(C#N)c(C(F)(F)F)c3)C(=O)C2(C)C)ccc1OCCN1CCN(CC(=O)Nc2cccc(NC3CCC(=O)NC3=O)c2Cl)CC1` (stereo not shown) [Example 35, hydrochloride]: the “Y (AR degradation efficiency, % of DMSO control)” value is recorded as “** (25%<Y<=35%)” and the 50% degradation concentration (DC50) lay within 100 to 500 nM.

`CC1(C)C(=O)N(c2cnc(C#N)c(C(F)(F)F)c2)C(=S)N1c1ccc(OCCN2CCN(CC(=O)Nc3cccc(NC4CCC(=O)NC4=O)c3)CC2)c(C2CCC2)c1` (stereo not shown) [Example 36, trifluoroacetate]: the “Y (AR degradation efficiency, % of DMSO control)” value is recorded as “* (0<Y<=25%)” and the half-maximal degradation concentration (DC50) is less than 100 nM.

Regarding `CCC(C)c1cc(N2C(=S)N(c3cnc(C#N)c(C(F)(F)F)c3)C(=O)C2(C)C)ccc1OCCN1CCN(CC(=O)Nc2cccc(NC3CCC(=O)NC3=O)c2)CC1` (stereo not shown) [Example 37, hydrochloride], the “Y (AR degradation efficiency, % of DMSO control)” value was “*** (35%<Y<50%)” and the DC50 lay within 500 to 1000 nM.

Consider `CCCc1cc(N2C(=S)N(c3cnc(C#N)c(C(F)(F)F)c3)C(=O)C2(C)C)ccc1OCCN1CCN(CC(=O)Nc2cccc(NC3CCC(=O)NC3=O)c2)CC1` (stereo not shown) [Example 38, hydrochloride], for which the “Y (AR degradation efficiency, % of DMSO control)” value was “* (0<Y<=25%)” and the 50% degradation concentration (DC50) was less than 100 nM.

Turning to `CC1(C)C(=O)N(c2ccc(C#N)c(C(F)(F)F)c2)C(=S)N1c1ccc(OCCN2CCN(CC(=O)Nc3cccc(NC4CCC(=O)NC4=O)c3)CC2)c(C2CCCC2)c1` (stereo not shown) [Example 39, hydrochloride], the “Y (AR degradation efficiency, % of DMSO control)” value was “** (25%<Y<=35%)” and the DC50 lay within 100 to 500 nM.
